Test results as given in US9475815B2, “Substituted benzothienyl-pyrrolotriazines and uses thereof” (Bayer Intellectual Property GmbH, priority 2012, dated 2016).

Tests used:
human mTOR = human mTOR (Homo sapiens (Human), UniProt P42345); test: mTOR kinase assay (TR-FRET, for comparative purposes); assay type: biochemical; conditions: for inhibition at 1 µM: read-out: mTOR % inhibition @ 1 μM, 1 μM test compound, 40 μM ATP, mean values
Method: mTOR inhibitory activity of the compounds of the present invention was quantified employing the TR-FRET based mTOR assay as described in the following paragraphs:
Test compounds were dissolved in DMSO to generate 10 mM stock solutions. These solutions were first 10-fold diluted by 100% DMSO to get 1 mM solutions in 100% DMSO, then 100-fold diluted by 50% DMSO to get 10 μM solutions in 50% DMSO.
(final concentration in the 10 μl assay volume=1 nM) in FRET buffer.
For this, the fluorescence emissions at 495 nm and 520 nm after excitation at 340 nm was measured in an Envision 2104 multilabel reader (Perkin-Elmer).

human FGFR-3 = human FGFR-3 (Homo sapiens (Human), UniProt P22607); test: FGFR-3 kinase assay (TR-FRET); assay type: biochemical; conditions: 10 μM ATP, 15 min pre-incubation with enzyme
human FGFR-1 = human FGFR-1 (Homo sapiens, UniProt P11362); test: FGFR-1 high ATP kinase assay (TR-FRET)
human FGFR-1, sequence (P11362 22-822 limits assumed): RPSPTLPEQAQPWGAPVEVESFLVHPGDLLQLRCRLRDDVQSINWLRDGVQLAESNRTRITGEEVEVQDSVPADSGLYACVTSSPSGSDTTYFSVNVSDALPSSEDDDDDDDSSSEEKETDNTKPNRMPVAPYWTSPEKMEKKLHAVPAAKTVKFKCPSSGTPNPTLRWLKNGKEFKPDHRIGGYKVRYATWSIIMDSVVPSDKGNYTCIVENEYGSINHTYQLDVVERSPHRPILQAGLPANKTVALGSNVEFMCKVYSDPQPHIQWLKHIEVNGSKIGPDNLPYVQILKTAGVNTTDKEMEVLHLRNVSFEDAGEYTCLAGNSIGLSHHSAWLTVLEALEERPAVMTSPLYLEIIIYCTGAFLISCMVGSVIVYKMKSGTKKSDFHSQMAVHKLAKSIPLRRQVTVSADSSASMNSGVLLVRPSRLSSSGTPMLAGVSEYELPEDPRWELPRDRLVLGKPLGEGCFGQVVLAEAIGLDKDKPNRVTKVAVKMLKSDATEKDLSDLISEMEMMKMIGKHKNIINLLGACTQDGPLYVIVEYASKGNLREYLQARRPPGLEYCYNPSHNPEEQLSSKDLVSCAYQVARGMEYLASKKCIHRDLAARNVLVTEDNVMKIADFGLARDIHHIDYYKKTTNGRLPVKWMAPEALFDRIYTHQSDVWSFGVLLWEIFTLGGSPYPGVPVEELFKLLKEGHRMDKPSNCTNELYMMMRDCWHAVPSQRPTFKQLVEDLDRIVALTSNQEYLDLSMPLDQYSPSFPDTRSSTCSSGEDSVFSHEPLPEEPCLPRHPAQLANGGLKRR

human mTOR, sequence (P42345 1360-2549): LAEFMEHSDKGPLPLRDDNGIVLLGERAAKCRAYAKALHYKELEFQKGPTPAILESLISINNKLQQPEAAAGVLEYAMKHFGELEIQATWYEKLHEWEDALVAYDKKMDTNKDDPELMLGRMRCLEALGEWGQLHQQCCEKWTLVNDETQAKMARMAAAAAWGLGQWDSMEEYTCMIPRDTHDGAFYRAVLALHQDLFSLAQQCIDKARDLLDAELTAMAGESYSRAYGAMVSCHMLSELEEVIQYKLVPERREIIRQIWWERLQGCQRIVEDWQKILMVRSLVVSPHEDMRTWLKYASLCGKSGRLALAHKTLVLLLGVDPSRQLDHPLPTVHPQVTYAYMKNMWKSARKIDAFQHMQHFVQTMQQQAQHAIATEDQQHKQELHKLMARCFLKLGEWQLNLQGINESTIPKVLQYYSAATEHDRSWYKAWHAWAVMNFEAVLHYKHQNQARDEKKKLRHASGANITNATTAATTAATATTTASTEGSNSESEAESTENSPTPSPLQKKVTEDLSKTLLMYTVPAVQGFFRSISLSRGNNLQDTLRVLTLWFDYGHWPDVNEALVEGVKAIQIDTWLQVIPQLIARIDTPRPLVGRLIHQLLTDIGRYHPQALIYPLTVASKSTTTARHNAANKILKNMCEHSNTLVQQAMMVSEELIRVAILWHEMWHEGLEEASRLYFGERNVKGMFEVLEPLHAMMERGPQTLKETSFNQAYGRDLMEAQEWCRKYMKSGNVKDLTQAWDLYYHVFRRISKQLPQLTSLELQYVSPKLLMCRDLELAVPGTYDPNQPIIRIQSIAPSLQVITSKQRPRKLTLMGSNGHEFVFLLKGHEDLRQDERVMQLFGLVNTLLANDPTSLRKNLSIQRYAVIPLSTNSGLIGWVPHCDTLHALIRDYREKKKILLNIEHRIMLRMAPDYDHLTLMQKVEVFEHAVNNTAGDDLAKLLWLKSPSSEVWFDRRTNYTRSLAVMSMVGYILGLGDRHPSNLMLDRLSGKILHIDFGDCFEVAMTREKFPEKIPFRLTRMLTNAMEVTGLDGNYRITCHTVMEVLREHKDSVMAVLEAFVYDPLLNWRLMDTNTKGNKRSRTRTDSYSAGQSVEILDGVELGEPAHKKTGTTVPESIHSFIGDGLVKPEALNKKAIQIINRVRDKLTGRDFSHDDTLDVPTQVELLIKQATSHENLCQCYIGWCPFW
human FGFR-3, sequence (P22607 397-806): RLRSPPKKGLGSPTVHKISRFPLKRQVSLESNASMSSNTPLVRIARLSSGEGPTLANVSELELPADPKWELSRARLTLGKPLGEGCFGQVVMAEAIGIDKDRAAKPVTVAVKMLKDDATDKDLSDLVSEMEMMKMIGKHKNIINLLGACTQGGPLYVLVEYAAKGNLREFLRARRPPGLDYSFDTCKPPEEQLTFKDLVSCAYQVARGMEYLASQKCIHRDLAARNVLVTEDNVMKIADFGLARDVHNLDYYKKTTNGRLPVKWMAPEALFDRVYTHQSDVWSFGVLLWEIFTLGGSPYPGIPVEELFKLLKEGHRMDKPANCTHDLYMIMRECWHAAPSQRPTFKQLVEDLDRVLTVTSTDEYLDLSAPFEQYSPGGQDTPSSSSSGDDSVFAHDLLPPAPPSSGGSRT

Compound | inhibition at 1 µM (human mTOR) | IC50 (human FGFR-3) | IC50 (human FGFR-1) | mTOR % inhibition @ 1 μM (human mTOR; 1 μM test compound, 40 μM ATP, mean values)
COc1cc(C)cc2cc(-c3cc(CN4CCC(N5CCCC5)C4)n4ncnc(N)c34)sc12 (stereo not drawn) [Example 60] | 11.3% | 58.6 nM | 39.6 nM | –
COc1cc(C)cc2cc(-c3cc(CNCC4CCN(C)CC4)n4ncnc(N)c34)sc12 [Example 61] | 8.6% | 43.5 nM | 39.7 nM | –
COc1cc(C)cc2cc(-c3cc(CN4CCN(CC(N)=O)CC4)n4ncnc(N)c34)sc12 [Example 64] | 28.2% | 56.4 nM | 48.9 nM | –
COc1cc(C)cc2cc(-c3cc(CNCCC4CCCN4C)n4ncnc(N)c34)sc12 (stereo not drawn) [Example 65] | 5.9% | 49.5 nM | 49.1 nM | –
COc1cc(C)cc2cc(-c3cc(CN4CC(N(C)C)C4)n4ncnc(N)c34)sc12 [Example 66] | 5.9% | 67.2 nM | 49.6 nM | –
COc1cc(C)cc2cc(-c3cc(CN(C)CCC(N)=O)n4ncnc(N)c34)sc12 [Example 67] | 48% | 28.4 nM | 53.1 nM | –
COc1cc(C)cc2cc(-c3cc(CN4CCN(C(N)=O)CC4)n4ncnc(N)c34)sc12 [Example 68] | 43.1% | 29.3 nM | 55 nM | –
COc1cc(C)cc2cc(-c3cc(CNC4CCN(C)CC4)n4ncnc(N)c34)sc12 [Example 69] | 4.6% | 59.9 nM | 59.5 nM | –
COc1cc(C)cc2cc(-c3cc(CN4CCCC(O)C4)n4ncnc(N)c34)sc12 (stereo not drawn) [Example 70] | 27.9% | 57.7 nM | 62 nM | –
COc1cc(C)cc2cc(-c3cc(CN4CC(N5CCCC5)C4)n4ncnc(N)c34)sc12 [Example 71] | 21.5% | 79.3 nM | 63.4 nM | –
COc1cc(C)cc2cc(-c3cc(CNCCO)n4ncnc(N)c34)sc12 [Example 72] | – | 47.2 nM | 65 nM | no inhib. effect detect.
COc1cc(C)cc2cc(-c3cc(CN4CCC(CO)CC4)n4ncnc(N)c34)sc12 [Example 73] | 17.2% | 64.8 nM | 66.6 nM | –
COc1cc(C)cc2cc(-c3cc(CN(C)C4CCS(=O)(=O)C4)n4ncnc(N)c34)sc12 (stereo not drawn) [Example 74] | 46.9% | 87.1 nM | 68.3 nM | –
COc1cc(C)cc2cc(-c3cc(CNCC(C)(C)N4CCOCC4)n4ncnc(N)c34)sc12 [Example 75] | 18.6% | 115 nM | 74.3 nM | –
COCCN(C)Cc1cc(-c2cc3cc(C)cc(OC)c3s2)c2c(N)ncnn12 [Example 76] | 29.9% | 73.7 nM | 83 nM | –
CCN(Cc1cc(-c2cc3cc(C)cc(OC)c3s2)c2c(N)ncnn12)C(C)CO (stereo not drawn) [Example 77] | 20.2% | 82.3 nM | 84.1 nM | –
COc1cc(C)cc2cc(-c3cc(CNC4CCS(=O)(=O)C4)n4ncnc(N)c34)sc12 (stereo not drawn) [Example 78] | 35.6% | 95.8 nM | 86.6 nM | –
COc1cc(C)cc2cc(-c3cc(CN4CCCC4c4ccc(C)cc4)n4ncnc(N)c34)sc12 (stereo not drawn) [Example 79] | 16.7% | 48.6 nM | 93 nM | –
COc1cc(C)cc2cc(-c3cc(CNC4CCN(C(C)C)CC4)n4ncnc(N)c34)sc12 [Example 80] | 3% | 120 nM | 93.4 nM | –
COc1cc(C)cc2cc(-c3cc(CNC4CC4)n4ncnc(N)c34)sc12 [Example 81] | 44.7% | 110 nM | 93.4 nM | –
COc1cc(C)cc2cc(-c3cc(CN4CCC(OC)CC4)n4ncnc(N)c34)sc12 [Example 82] | 18.7% | 71.9 nM | 97.3 nM | –
COc1cc(C)cc2cc(-c3cc(CNC4CCCC4O)n4ncnc(N)c34)sc12 (stereo not drawn) [Example 83] | 18.3% | 97.9 nM | 98.6 nM | –
COc1cc(C)cc2cc(-c3cc(CN4CC[C@@H](O)C4)n4ncnc(N)c34)sc12 [Example 84] | 15.3% | 39.1 nM | 38.9 nM | –
COc1cc(C)cc2cc(-c3cc(CN[C@@H](C)C(N)=O)n4ncnc(N)c34)sc12 [Example 85] | 28.2% | 22.1 nM | 45.4 nM | –
COc1cc(C)cc2cc(-c3cc(CN[C@H]4CC[C@@H](N(C)C)CC4)n4ncnc(N)c34)sc12 [Example 87] | 21.9% | 29.1 nM | 13.2 nM | –
